# Assay results published in patent US12171866B2, “Lipid emulsion for parenteral nutrition comprising GPC” (BAXTER INTERNATIONAL INC., priority 2018, dated 2024).
# Entries after “also recorded” stand apart in the source; their conditions may differ.
# Assays:
# [1] = Stability of lipid emulsions upon sterilization in the presence of choline derivatives; format: physicochemical; details: for Stability of lipid emulsion upon sterilization (Comment): heat sterilization; for stability of the lipid emulsions during sterilization (heat): lipid emulsions prepared as in Example 1
# Text: In a first step, raw phases are heated up. […] The receiving vessel is closed and flushed with nitrogen.
# [2] = system: male Sprague-Dawley rats with steatosis, induced by choline and methionine deficient (MCD) diet; assay: Liver weight to body weight ratio (FIG. 4); format: in vivo, rat
# Text: (§1) The effects of GPC as well as of the combination of DHA, ARA and GPC were investigated in a sick animal model, wherein male Sprague-Dawley rats with steatosis, induced by choline and methionine deficient (MCD) diet (S SNIFF MCD pelleted choline/methionine deficient diet (SSNIFF Spezialdiäten GmbH, Soest, Germany, Product No. E15653-94)) were kept on parenteral nutrition.
# (§2) Parenteral nutrition started after 14 days under MCD diet. First measurements were done after 5 days of parenteral nutrition, followed by measurements after 9 and 17 days. The daily lipid uptake was 2.31 g/kg/d. The rats were split into several groups as set forth below in Table I.
# (§3) Two groups served as control groups, wherein a first group was treated with saline solution (0.90% w/v of NaCl in water for injection). A second group received a lipid emulsion (“LE 10%”) containing refined olive oil (80.0 g/L) and refined soybean oil (20.0 g/L) in water for injection, pH 6-8; LE 10% further contained egg lecithin (6.0 g/L), glycerol (11.25 g/L) and sodium oleate (0.15 g/L). LE 10% contained 100 g/L lipids.
# (§4) Various choline derivatives selected from the group consisting of choline chloride, glycerophosphocholine (GPC) and cytidine diphosphate-choline (CDP-choline) were added in two concentrations (low/high) to LE 10%, respectively, see Table I (Step #2). “Low” refers to a concentration of 15 mmol/L lipid emulsion, “high” refers to a concentration of 31 mmol/L of lipid emulsion. Choline chloride (2-Hydroxyethyl)trimethylammonium chloride). Pharmaceutical Secondary Standard, was purchased from Sigma-Aldrich (Merck KGaA, Germany). CDP-choline (prepared by fermentation) was from TCI Europe N.V. (Antwerp, Belgium). Glycerophosphocholine, prepared from egg phosphatide by saponification, was supplied by Lipoid GmbH, Germany. DHA (from algae, Schizochytrium sp.) and ARA (from fungi, Mortierella alpina) were purchased from BASF AG, Germany, Vitamin E was purchased from ADM (IL, U.S.A.)
# The study groups as described in Example 1 were further evaluated with regard to the development of liver weight versus body weight. An increase in liver weight which is not proportional to the increase of body weight is typical for the development of liver damage, specifically steatosis, as described before.
# [3] = system: male Sprague-Dawley rats with steatosis, induced by choline and methionine deficient (MCD) diet; assay: Liver histopathology, vacuolation, choline derivatives alone, Step #2 (FIG. 3A); format: in vivo, rat; details: no DHA and ARA
# Text: as §1, §2, §3, §4
# [4] = system: male Sprague-Dawley rats with steatosis, induced by choline and methionine deficient (MCD) diet; assay: Alanine aminotransferase (ALT) activity in plasma, animal study Step #2 (FIG. 1); format: in vivo, rat
# Method: ALT activity is determined by a modification recommended by the International Federation of Clinical Chemistry (IFCC), see also Example 2. ALT catalyzes the reaction of alpha-ketoglutarate with L-alanine to form L-glutamate and pyruvate. Under the action of LDH, pyruvate converts to lactate, and NADH is converted to NAD. The decrease in absorbance of NADH, measured at 340 nm (secondary wavelength is 700 nm), is directly proportional to the serum activity of ALT. It is a kinetic reaction. In general, serum is used for analysis. The serum is separated from the cells within 2 hours of collection and stored at -70° C. until assayed, Monitoring the ALT activity over time in an animal model is used herein as one straightforward and conclusive way to determine the efficacy of GPC in treating liver disease, specifically liver damage caused by a choline-deficient diet (Examples 1 and 2, FIGS. 1 and 2), Plasma-free choline concentration can be determined by high-pressure liquid chromatography (HPLC) and gas chromatography-mass spectrometry according to protocols known in the art (Pomfret et. al.: Measurement of choline and choline metabolite concentrations using high pressure liquid chromatography and gas chromatography-mass spectrometry. Anal Biochem. 1989; 180: 85-90). The effects of GPC as well as of the combination of DHA, ARA and GPC were investigated in a sick animal model, wherein male Sprague-Dawley rats with steatosis, induced by choline and methionine deficient (MCD) diet (S SNIFF MCD pelleted choline/methionine deficient diet (SSNIFF Spezialdiäten GmbH, Soest, Germany, Product No. E15653-94)) were kept on parenteral nutrition. Steatosis was confirmed in the respective groups by histopathology (Example 3). Parenteral nutrition started after 14 days under MCD diet. First measurements were done after 5 days of parenteral nutrition, followed by measurements after 9 and 17 days. The daily lipid uptake was 2.31 g/kg/d. The rats were split into several groups as set forth below in Table I. Two groups served as control groups, wherein a first group was treated with saline solution (0.90% w/v of NaCl in water for injection). A second group received a lipid emulsion (“LE 10%”) containing refined olive oil (80.0 g/L) and refined soybean oil (20.0 g/L) in water for injection, pH 6-8; LE 10% further contained egg lecithin (6.0 g/L), glycerol (11.25 g/L) and sodium oleate (0.15 g/L). LE 10% contained 100 g/L lipids. […] Pharmaceutical Secondary Standard, was purchased from Sigma-Aldrich (Merck KGaA, Germany). […] As described before, liver damage (cholestasis) may be determined by increased aminotransferase levels. ALT activity was determined with an ADVIA 1800 blood biochemistry analyzer/IFCC modified (Siemens) according to standard protocols such as described before.
# [5] = system: male Sprague-Dawley rats with steatosis, induced by choline and methionine deficient (MCD) diet; assay: ALT activity in percent of the normal value, animal study Step #3 (FIG. 2); format: in vivo, rat
# Method: ALT activity is determined by a modification recommended by the International Federation of Clinical Chemistry (IFCC), see also Example 2. ALT catalyzes the reaction of alpha-ketoglutarate with L-alanine to form L-glutamate and pyruvate. Under the action of LDH, pyruvate converts to lactate, and NADH is converted to NAD. The decrease in absorbance of NADH, measured at 340 nm (secondary wavelength is 700 nm), is directly proportional to the serum activity of ALT. It is a kinetic reaction. In general, serum is used for analysis. The serum is separated from the cells within 2 hours of collection and stored at −70° C. until assayed, Monitoring the ALT activity over time in an animal model is used herein as one straightforward and conclusive way to determine the efficacy of GPC in treating liver disease, specifically liver damage caused by a choline-deficient diet (Examples 1 and 2, FIGS. 1 and 2), Plasma-free choline concentration can be determined by high-pressure liquid chromatography (HPLC) and gas chromatography-mass spectrometry according to protocols known in the art (Pomfret et. al.: Measurement of choline and choline metabolite concentrations using high pressure liquid chromatography and gas chromatography-mass spectrometry. Anal Biochem. 1989; 180: 85-90). […] As described before, liver damage (cholestasis) may be determined by increased aminotransferase levels. […]
# [6] = choline derivative high, 31 mmol/L in LE 10%, versus LE 10% alone
# [7] = choline derivative low, 15 mmol/L in LE 10%
# [8] = plasma, day 5 to day 17 of parenteral nutrition, choline derivative 31 mmol/L (high) in LE 10%
# [9] = choline derivative high, 31 mmol/L in LE 10%
# [10] = phosphatidylcholine as contained in the lipid emulsion(s)
"Stability of lipid emulsion upon sterilization (Comment) ([1]; 30 mmol/L, lipid emulsions tested LE 10, 20 %)",Molecule,"Stability of lipid emulsion upon sterilization (Comment) ([1]; 30 mmol/L, lipid emulsion tested LE 10 %)",stability of the lipid emulsions during sterilization (heat) [1],"liver to body weight ratio [2, 6]","effect on liver vacuolation (histopathological examination) [3, 7]","development of ALT activity [4, 8]","Stability of lipid emulsion upon sterilization (Comment) ([1]; 15 mmol/L, lipid emulsions tested LE 10, 13, 20 %)","effect on liver vacuolation (histopathological examination) [3, 9]","liver to body weight ratio [2, 10]","development of ALT activity ([4]; phosphatidylcholine as contained in LE lipid emulsion, 17 days parenteral nutrition)","ALT activity, change versus normal value [5, 10]","ALT activity, change versus normal value ([5]; GPC 40 mmol/L in lipid emulsion, normal (LE 10%) or reduced (LE 13%) phytosterol content)"
–,"C[N+](C)(C)CCOP(=O)(O)OP(=O)([O-])OC[C@H]1O[C@@H](n2ccc(N)nc2=O)[C@H](O)[C@@H]1O [CDP-choline, cytidine diphosphate-choline]",Phase separation,destabilize the lipid emulsions during sterilization,reduction of the ratio,also had an effect,ALT activity neither significantly increases or decreases,–,–,–,–,–,–
–,"C[N+](C)(C)CCO.[Cl-] [choline chloride, (2-Hydroxyethyl)trimethylammonium chloride]",–,destabilize the lipid emulsions during sterilization,reduction of the ratio,fared better than those with only saline or lipid emulsion without any choline derivative,ALT activity neither significantly increases or decreases,Phase separation,fared better than those with only saline or lipid emulsion without any choline derivative,–,–,–,–
–,phosphatidylcholine,–,–,–,–,–,–,–,does not seem to have any effect,does not seem to have any effect,does not seem to have any effect,–
Stable emulsion,"C[N+](C)(C)CCOP(=O)([O-])OC[C@@H](O)CO [GPC, (2-{[(2S)-2,3-dihydroxypropylphosphonato]oxy}ethyl)trimethylazanium]",–,remained stable,most pronounced reduction of the ratio,significantly better,clear drop in ALT activity; also recorded: most pronounced,–,significantly better,–,–,–,significant decrease of ALT activity
